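A five-concentration, 48-hour dose response in 96-well plates underlies each endpoint, interpolated linearly between surrounding concentrations. At the GI50, growth is halved.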 The source made the active and inactive calls. No stated cut-off is given here; in the data, active = GI50 up to about 1.1 µM and inactive = higher.
Assays:
Assay in all cases: DTP human tumour cell line panel, 48 h
[1] = test system: A549
[2] = test system: CCRF-CEM
[3] = test system: HCC 2998
[4] = test system: Hs-578T
[5] = test system: IGROV-1
[6] = test system: K562
[7] = test system: KM12
[8] = test system: M14
[9] = test system: Malme-3M
[10] = test system: NCI-H522
[11] = test system: NCI/ADR-RES
[12] = test system: OVCAR-8
[13] = test system: PC-3
[14] = test system: RXF 393
[15] = test system: SF-268
[16] = test system: SK-MEL-28
[17] = test system: SN12C
[18] = test system: SNB-19
[19] = test system: U-251
[20] = test system: UO-31

Compound | GI50 [1] | GI50 [2] | GI50 [3] | GI50 [4] | GI50 [5] | GI50 [6] | GI50 [7] | GI50 [8] | GI50 [9] | GI50 [10] | GI50 [11] | GI50 [12] | GI50 [13] | GI50 [14] | GI50 [15] | GI50 [16] | GI50 [17] | GI50 [18] | GI50 [19] | GI50 [20]
COc1ccc2nc3ccc(OC)cc3c(SCCCl)c2c1 | 39.2 µM (inactive) | 2.75 µM (inactive) | > 45.8 µM (inactive) | 5.07 µM (inactive) | 5.09 µM (inactive) | 9.66 µM (inactive) | 17.5 µM (inactive) | 12.3 µM (inactive) | 9.57 µM (inactive) | 3.03 µM (inactive) | 16.3 µM (inactive) | 8.57 µM (inactive) | 22.6 µM (inactive) | > 20.6 µM (inactive) | 12 µM (inactive) | 31.7 µM (inactive) | 12.2 µM (inactive) | 32.4 µM (inactive) | 18 µM (inactive) | 32 µM (inactive)
CCOC(=O)C1C[C@H]2CO[C@H](c3ccccc3)N2C1=O (stereo not given in full) | > 100 µM (inactive) | > 100 µM (inactive) | 73.8 µM (inactive) | > 100 µM (inactive) | > 100 µM (inactive) | > 100 µM (inactive) | > 100 µM (inactive) | > 100 µM (inactive) | > 100 µM (inactive) | > 100 µM (inactive) | > 100 µM (inactive) | > 100 µM (inactive) | > 100 µM (inactive) | > 100 µM (inactive) | > 100 µM (inactive) | > 100 µM (inactive) | > 100 µM (inactive) | > 100 µM (inactive) | > 100 µM (inactive) | > 100 µM (inactive)
CC[C@H]1C=CCC[C@@]2(C[C@@H]3CC[C@@H]4[C@H](C(=O)OCCCCCCCCCCCCCCCC(=O)O)[C@]5(CCC[C@@H](C)O5)NC(=[N+]34)N2)O1 [CRAMBESCIDIN 657] | 0.164 µM (active) | 0.005 µM (active) | 0.0973 µM (active) | 0.571 µM (active) | 0.193 µM (active) | 0.121 µM (active) | 0.207 µM (active) | 0.1 µM (active) | 0.153 µM (active) | 0.131 µM (active) | 4.61 µM (inactive) | 0.23 µM (active) | 0.1 µM (active) | 0.216 µM (active) | 0.367 µM (active) | 0.743 µM (active) | 0.418 µM (active) | 0.365 µM (active) | 0.183 µM (active) | 0.125 µM (active)

From ChEMBL document CHEMBL1201862, “PubChem BioAssay data set” (2004)
